Assay results reported in US20160176867A1, “MODIFIED BET-PROTEIN-INHIBITING DIHYDROQUINOXALINONES AND DIHYDROPYRIDOPYRAZINONES” (BAYER PHARMA AKTIENGESELLSCHAFT, priority 2013, published 2016).

Experiments:
[1] = target: T1, BRD4 bromo domain 2 [BRD4(2)] (Homo sapiens, UniProt O60885); assay: BRD4/acetylated peptide H4 binding assay (TR-FRET), BRD4 bromo domain 2; conditions: inhibition of BRD4(2)/Ac-H4 peptide interaction
T1 construct: N-terminally His6-tagged BRD4(2) (amino acids 357-445); made in house; host or cells: E. coli
Outline: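 Binding of His6-BRD4(2) (aa 357-445, 100 nM final) to biotinylated tetra-acetylated H4 peptide read by TR-FRET (665/620 nm). Compound preincubated 10 min at 22 °C, then 1 h at 22 °C plus ≥3 h at 4 °C. Eleven concentrations (0.1 nM–20 μM) in duplicate; IC50 by 4-parameter fit.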

CHL-1 cells = assay: Cell proliferation assay (alamarBlue), CHL-1; format: cell-based; conditions: Homo sapiens; CHL-1 (melanoma, BRAF wild-type), 96 hours
Description: (§1) In accordance with the invention, the ability of the substances to inhibit cell proliferation was determined. Cell viability was determined by means of the alamarBlue® reagent (Invitrogen) in a Victor X3 Multilabel Reader (Perkin Elmer). The excitation wavelength was 530 nm and the emission wavelength […].
The CHL-1 cells (ATCC, CRL-9446) were sown at a concentration of 1000 cells/well in 100 μl of growth medium (DMEM with glutamine, 10% FCS) on 96-well microtitre plates.
(§2) After overnight incubation at 37° C., the fluorescence values were determined (CI values). Then the plates were treated with various substance dilutions (1E-5 M, 3E-6 M, 1E-6 M, 3E-7 M, 1E-7 M, 3E-8 M, 1E-8 M) and incubated at 37° C. over 96 hours (MOLM-13, B16F10, CHL-1 cells) or 120 hours (MOLP-8 cells). Subsequently, the fluorescence values were determined (CO values). For the data analysis, the CI values were subtracted from the CO values and the results were compared between cells which had been treated with various dilutions of the substance or only with buffer solution. The IC50 values (substance concentration needed for 50% inhibition of cell proliferation) were calculated therefrom.

B16F10 cells = assay: Cell proliferation assay (alamarBlue), B16F10; format: cell-based; conditions: Mus musculus, B16-F10; B16F10 (melanoma, BRAF wild-type), 96 hours
Description: as §1
The B16F10 cells (ATCC, CRL-6475) were sown at a concentration of 300-500 cells/well in 100 μl of growth medium (DMEM with phenol red, 10% FCS) on 96-well microtitre plates.
as §2

MOLP-8 cells = assay: Cell proliferation assay (alamarBlue), MOLP-8; format: cell-based; conditions: Homo sapiens; MOLP-8 (multiple myeloma), 120 hours
Description: as §1
The MOLP-8 cells (DSMZ, ACC 569) were sown at a concentration of 4000 cells/well in 100 μl of growth medium (RPMI1640, 20% FCS) on 96-well microtitre plates.
as §2

Row | Structure (SMILES) | IC50 [1] [nM] | IC50 (CHL-1 cells) [nM] | IC50 (B16F10 cells) [nM] | IC50 (MOLP-8 cells) [nM]
1 | COc1ccc(S(=O)(=O)N2CCOCC2)cc1Nc1ccc2c(n1)N(C1CCN(C)CC1)[C@H](C)C(=O)N2C [Example 25, (3R)-6-{[2-Methoxy-5-(morpholin-4-ylsulphonyl)phenyl]amino}-1,3-dimethyl-4-(1-methylpiperidin-4-yl)-3,4-dihydropyrido[2,3-b]pyrazin-2(1H)-one] | 56 | 16 | 43 | 11
2 | COc1ccc(S(=O)(=O)N2CCOCC2)cc1Nc1ccc2c(n1)N(C1CCOCC1)[C@H](C)C(=O)N2C [Example 28, (3R)-6-{[2-Methoxy-5-(morpholin-4-ylsulphonyl)phenyl]amino}-1,3-dimethyl-4-(tetrahydro-2H-pyran-4-yl)-3,4-dihydropyrido[2,3-b]pyrazin-2(1H)-one] | 53 | 14 | 30 | 18
3 | C[C@@H]1C(=O)N(C)c2ccc(Nc3cccc(S(=O)(=O)N4CCN(C)CC4)c3)nc2N1C1CCNCC1 [Example 125, (3R)-1,3-dimethyl-6-({3-[(4-methylpiperazin-1-yl)sulphonyl]phenyl}amino)-4-(piperidin-4-yl)-3,4-dihydropyrido[2,3-b]pyrazin-2(1H)-one] | 44 | 2260 | > 10000 | 719
4 | C[C@@H]1C(=O)N(C)c2ccc(Nc3cccc(C(=O)NCCN4CCN(C)CC4)c3)nc2N1Cc1ccccc1 [Example 74, 3-{[(3R)-4-benzyl-1,3-dimethyl-2-oxo-1,2,3,4-tetrahydropyrido[2,3-b]pyrazin-6-yl]amino}-N-[2-(4-methylpiperazin-1-yl)ethyl]benzamide] | 91 | 83 | 491 | 82
5 | C[C@@H]1C(=O)N(C)c2ccc(Nc3cccc(S(=O)(=O)N(C)C)c3)nc2N1C1CCNCC1 [Example 123, 3-{[(3R)-1,3-dimethyl-2-oxo-4-(piperidin-4-yl)-1,2,3,4-tetrahydropyrido[2,3-b]pyrazin-6-yl]amino}-N,N-dimethylbenzene-sulphonamide] | 62 | 218 | 2500 | 169
6 | COCCN1c2nc(Nc3cccc(S(=O)(=O)N4CCOCC4)c3)ccc2N(C)C(=O)C1C (racemic) [Example 49, 4-(2-methoxyethyl)-1,3-dimethyl-6-{[3-(morpholin-4-ylsulphonyl)phenyl]amino}-3,4-dihydropyrido[2,3-b]pyrazin-2(1H)-one] | 159 | 153 | 399 | 163
7 | COCCN1c2nc(Nc3cccc(S(=O)(=O)N4CCN(C)CC4)c3)ccc2N(C)C(=O)C1C (racemic) [Example 53, 4-(2-methoxyethyl)-1,3-dimethyl-6-({3-[(4-methylpiperazin-1-yl)sulphonyl]phenyl}-amino)-3,4-dihydropyrido-[2,3-b]pyrazin-2(1H)-one] | 186 | 179 | 1300 | 365
8 | C[C@@H]1C(=O)N(C)c2ccc(Nc3cccc(S(=O)(=O)N4CCN(CC(F)(F)F)CC4)c3)nc2N1C1CCNCC1 [Example 126, (3R)-1,3-dimethyl-4-(piperidin-4-yl)-6-[(3-{[4-(2,2,2-trifluoroethyl)piperazin-1-yl]sulphonyl}phenyl)amino]-3,4-dihydropyrido[2,3-b]pyrazin-2(1H)-one] | 86 | 202 | 1160 | 130
9 | C[C@@H]1C(=O)N(C)c2ccc(Nc3cccc(C(=O)NC4CCN(C)CC4)c3)nc2N1Cc1ccccc1 [Example 73, 3-{[(3R)-4-benzyl-1,3-dimethyl-2-oxo-1,2,3,4-tetrahydropyrido[2,3-b]pyrazin-6-yl]amino}-N-(1-methylpiperidin-4-yl)benzamide] | 86 | 80 | 468 | 63
